Results reported in patent US20110281814A1, “METHODS AND COMPOSITIONS FOR TREATING BREAST CANCER” (Genzyme Corporation, priority 2009, published 2011).
Where two headings read alike, the source gives them in different places.

Legend:
established 4T1 tumors = test system: established 4T1 tumors
Description: The 4T1 cell line (available from the […], Manassas, Va.) was derived from a spontaneously arising BALB/c mammary tumor and is commonly used as a syngeneic mouse model of metastatic breast cancer. When introduced orthotopically, the 4T1 line grows rapidly at the primary site and forms metastases in lungs, liver, bone and brain over a period of 3-6 weeks. When introduced intravenously or arterially, metastases are apparent in the same organs after 1-2 weeks. The rapid and efficient metastasis to organs affected in human breast cancer makes the 4T1 model an excellent mouse model for the study of metastatic progression of breast cancer in humans.
Three groups of 6- to 8-week-old SCID mice (6 animals each) were injected subcutaneously with 2×10^5 4T1 cells. At the start of dosing (about 14 days post-injection), the tumor volume was approximately 100 mm^3.
The size of the tumors was measured approximately every four days, beginning on day 10 post-injection. Animals were euthanized when the tumor volume reached approximately 1000 mm^3. […] The time course of the average tumor volume is plotted for each experimental group in FIG. 4A.

MDA-MB-231 tumors [1] = conditions: for potentiation of the effect of doxorubicin on tumor growth: three weeks from day 28, vs doxorubicin alone, FIG. 5
Protocol: Four groups of 6- to 8-week-old SCID mice (6 animals each) were injected subcutaneously with 1×10^6 MDA-MB-231 cells. At the start of dosing (about 28 days post-injection), the tumor volume was approximately 100 mm^3. Beginning approximately 28 days after the injection, Groups 2-4 were administered intraperitoneal injections of doxorubicin once a week (Monday) for three weeks at 2 mg/kg body weight.
The size of the tumors was measured approximately every six days, beginning on day 21 post-injection. Animals were euthanized when the tumor volume reached approximately 1000 mm^3. The time course of the average tumor volume is plotted for each experimental group in FIG. 5.

MDA-MB-231 tumors [2] = test system: MDA-MB-231 tumors
Protocol: Three groups of 6- to 8-week-old SCID mice (6 animals each) were injected subcutaneously with 2×10^6 MDA-MB-231 cells. At the start of dosing (about 14 days post-injection), the tumor volume was approximately 100 mm^3. Beginning approximately 14 days after the injection, Groups 2 and 3 were administered intraperitoneal injections of doxorubicin once a week (Monday) for the duration of the study at 1 mg/kg body weight.
The size of the tumors was measured approximately every three days, beginning on day 21 post-injection. Animals were euthanized when the tumor volume reached approximately 1000 mm^3. The time course of the average tumor volume is plotted for each experimental group in FIG. 6A.

[3] = test system: SDF-1α/CXCL12-mediated transactivation of HER2/neu; conditions: MDA-MB-361 breast cancer cells, in vitro; Cabioglu et al. 2005; cited from earlier work
murine 4T1 cells = conditions: Smith et al. 2004, cited from earlier work
[4] = disclosed in PCT Pub. No. WO 00/045814; cited from earlier work
breast cancer = conditions: mouse models of breast cancer; literature; cited from earlier work
[5] = test system: MDA-MB-231 human breast cancer cells admixed with human mesenchymal stem (MSC) cells; test: Efficacy of AMD3465 in MDA-MB-231+MSC breast cancer model (Example 1); format: in vivo, SCID mice; conditions: vs PBS control, FIG. 1
Protocol: The MSC cells provide stromal support to the MDA-MB-231 cells and enhance tumor growth and metastasis via SDF-1α/CXCL12 and RANTES pathways.
Group 2 was given intraperitoneal injections of anti-human SDF-1α/CXCL12 monoclonal antibody three times a week (Monday, Wednesday and Friday) for six weeks at 100 μg per animal.

[6] = test system: MDA-MB-231 cells admixed with MSC cells; conditions: presence of MSC cells, FIG. 2A
Protocol: (§1) Six groups of 6- to 8-week-old SCID mice (6 animals each) were injected subcutaneously with 1×10^6 MDA-MB-231 cells. Groups 4-6 were further injected with 1×10^6 MSC cells admixed with the MDA-MB-231 cells.
(§2) The size of the tumors was measured approximately every five days, beginning on day 15 post-injection. Animals were euthanized when the tumor volume reached approximately 1000 mm^3. The time course of the average tumor volume is plotted for each experimental group in FIGS. 2A and 2B.

MDA-MB-231 cells = conditions: AMD3465 5 or 10 mg/kg i.p. MWF from 7 days post-injection; absence of MSC cells; FIG. 2B
Protocol: as §1, §2

[7] = test system: established MDA-MB-231 tumors; conditions: for rate of tumor growth: FIG. 3A; for mean survival (Kaplan-Meier): FIG. 3B
Protocol: Four groups of 6- to 8-week-old SCID mice (8 animals each) were injected subcutaneously with 1×10^6 MDA-MB-231 cells. At the start of dosing (about 21 days post-injection), the tumor volume was approximately 100 mm^3.
The size of the tumors was measured approximately every five days, beginning on day 21 post-injection. Animals were euthanized when the tumor volume reached approximately 1000 mm^3. The time course of the average tumor volume is plotted for each experimental group in FIG. 3A.

[8] = AMD3100 1.25 mg/kg s.c. MWF for two weeks, FIG. 4A
[9] = AMD3100 […] + doxorubicin 2 mg/kg
[10] = AMD3100 […] + doxorubicin 1 mg/kg

Compound: c1cc(CN2CCCNCCNCCCNCC2)ccc1CN1CCCNCCNCCCNCC1 [AMD3100]
- leveling off of tumor growth (established 4T1 tumors; [8]): largely leveled off by day 26 post-injection
- onset of tumor growth (established 4T1 tumors; [8]): delayed by approximately one week
- rate of tumor growth (established 4T1 tumors; [8]): significantly decreased the rate of tumor growth
- mean survival (Kaplan-Meier) (established 4T1 tumors; AMD3100 1.25 mg/kg, FIG. 4B): increased the mean survival
- potentiation of the effect of doxorubicin on tumor growth (MDA-MB-231 tumors [1]; AMD3100 1.25 mg/kg s.c. MWF + doxorubicin 2 mg/kg i.p. weekly): not at 1.25 mg/kg
- leveling off of tumor growth (MDA-MB-231 tumors [1]; [9]): leveled off by day 92 post-injection
- onset of tumor growth (MDA-MB-231 tumors [1]; [9]): delayed by several weeks
- potentiation of the effect of doxorubicin on tumor growth (MDA-MB-231 tumors [1]; AMD3100 […] s.c. MWF + doxorubicin 2 mg/kg i.p. weekly): potentiated the effect of 2 mg/kg doxorubicin on the tumor growth
- leveling off of tumor growth (MDA-MB-231 tumors [2]; [10]): leveled off by day 50 post-injection
- onset of tumor growth (MDA-MB-231 tumors [2]; [10]): delayed by about two weeks
- rate of tumor growth compared to doxorubicin alone (MDA-MB-231 tumors [2]; [10]): significantly (p=0.04) decreased
- mean survival (Kaplan-Meier) compared to doxorubicin alone (MDA-MB-231 tumors [2]; AMD3100 […] + doxorubicin 1 mg/kg, FIG. 6B): significantly (p=0.07) increased the mean survival
- potentiation of the effect of doxorubicin on tumor growth (MDA-MB-231 tumors [2]; AMD3100 […] s.c. MWF + doxorubicin 1 mg/kg i.p. weekly, duration of study from day 14, FIG. 6A): significantly potentiated the effect of 1 mg/kg doxorubicin on the tumor growth
- SDF-1α/CXCL12-mediated transactivation of HER2/neu [3]: inhibit
- growth onset of 4T1 cells in the lung (murine 4T1 cells): significantly delayed the growth onset
- overall survival (murine 4T1 cells; mice with experimental lung metastases): did not appear to improve overall survival
- white blood cell count [4]: increasing the white blood cell count

Compound: TN14003
- metastasis (breast cancer): reduce metastasis
- primary tumor growth (breast cancer): reduce primary tumor growth

Compound: c1ccc(CNCc2ccc(CN3CCCNCCNCCCNCC3)cc2)nc1 [AMD3465]
- rate of tumor growth ([5]; AMD3465 5 mg/kg i.p. MWF for six weeks from 48 hours post-injection): significantly (p=0.07) decreased the rate of tumor growth
- rate of tumor growth ([5]; AMD3465 10 mg/kg i.p. MWF for six weeks from 48 hours post-injection): not at 10 mg/kg
- rate of tumor growth ([6]; AMD3465 5 mg/kg i.p. MWF from 7 days post-injection): significantly (p=0.024) decreased the rate of tumor growth
- rate of tumor growth ([6]; AMD3465 10 mg/kg i.p. MWF from 7 days post-injection): not at 10 mg/kg
- rate of tumor growth (MDA-MB-231 cells): no statistically significant effect
- rate of tumor growth ([7]; AMD3465 5 mg/kg i.p. MWF from about 21 days post-injection): not at 5 or 10 mg/kg
- mean survival (Kaplan-Meier) ([7]; AMD3465 5 mg/kg): not at 5 or 10 mg/kg
- rate of tumor growth ([7]; AMD3465 10 mg/kg i.p. MWF from about 21 days post-injection): not at 5 or 10 mg/kg
- mean survival (Kaplan-Meier) ([7]; AMD3465 10 mg/kg): not at 5 or 10 mg/kg
